Assay results: patent publication US20090075950A1, “Dosage Forms Containing A PPI, NSAID And A Buffer” (Takeda Pharmaceuticals North America, Inc., priority 2002, published 2009)

Assays:
[1] = PPI/NSAID drug substance compatibility: storage of lansoprazole/NSAID mixtures with and without buffer; format: physicochemical
Protocol: Various NSAIDs were combined with lansoprazole with and without a buffer to determine the compatibility of the components. The various mixtures were placed at room temperature and 40° C. with 75% relative humidity. The samples were tested initially and after two weeks at the storage conditions above. The results are reported in Table 1 below as a percent of the theoretical amount of a given component.

[2] = Potency by HPLC and compatibility on storage of granulations and drug substances; format: physicochemical; conditions: for Potency 2 Weeks Extreme Conditions, NSAID: 2 weeks at 40° C. with 75% to 85% relative humidity; for Potency 4 Weeks Extreme Conditions, NSAID: 4 weeks at 40° C. with 75% to 85% relative humidity; for Potency 19 Days RT, NSAID: 19 days at room temperature; for Potency 33 Days RT, NSAID: 33 days at room temperature
Protocol: In this example, granulations of a PPI and various NSAIDs were prepared to determine the compatibility of these substances with each other in a granulated form.
The potency (mg/g) of each drug substance in each granulation was determined by HPLC.
Granulations A, C, and D, as well as naproxen and piroxicam drag substances were weighed and separately placed in scintillation vials and stored at room temperature (RT) and at 40° C. with 75% to 85% relative humidity (“Extreme Conditions”). Granulations A, C, and D, as well as the naproxen and piroxicam, were tested for potency of the lansoprazole and NSAID after 19 and 33 days at the room temperature conditions and after two and four weeks under the Extreme Conditions.

## Cc1c(OCC(F)(F)F)ccnc1C[S+]([O-])c1nc2ccccc2[nH]1 (centres unmarked) [Lansoprazole, lansoprazole]
[1]; lansoprazole recovered after two weeks at 40° C. with 75% relative humidity
  % of Theory, 40° C. 75% humidity, lanso: 99.1/NA %
[1]; lansoprazole recovered after two weeks at room temperature
  % of Theory, Room Temp., lanso: 99.1/NA %
[1]; lansoprazole recovered, initial
  % of Theory, Initial, lanso: 100.8/NA %

## COc1ccc2cc([C@H](C)C(=O)O)ccc2c1 [Naproxen, naproxen]
[2]
  Potency 2 Weeks Extreme Conditions, NSAID: NA/996.7 mg/g
  Potency 4 Weeks Extreme Conditions, NSAID: NA/1000.9 mg/g
  Potency 19 Days RT, NSAID: NA/997.2 mg/g
  Potency 33 Days RT, NSAID: NA/998.2 mg/g

## CN1C(C(=O)Nc2ccccn2)=C(O)c2ccccc2S1(=O)=O [Piroxicam, piroxicam]
[2]
  Potency 2 Weeks Extreme Conditions, NSAID: NA/942.2 mg/g
  Potency 4 Weeks Extreme Conditions, NSAID: NA/1005.5 mg/g
  Potency 19 Days RT, NSAID: NA/1027.1 mg/g
  Potency 33 Days RT, NSAID: NA/998.5 mg/g
